Measurements reported in patent publication US20230219904A1 (SYNGENTA CROP PROTECTION AG, priority 2020, published 2023).

Key:
Assay type in all cases: in vivo
Conditions in all cases: evaluated after 13 days
[1] = system: Ipomoea hederacea (IPOHE); assay: Post-emergence herbicidal glasshouse test (Table B1)
How it was run: (§1)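 Damage is rated 13 days after treatment on a 1–5 scale (5 = 80–100%). Application, usually 500 g/h in acetone/water (50:50) with 0.5% Tween 20, is made one day post-sowing for pre-emergence or eight days for post-emergence; glasshouse at 24/16 °C, 14 h light, 65% humidity.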

[2] = system: Echinochloa crus-galh (ECHCG); assay: as above
How it was run: as §1

[3] = system: Abutilon theophrasti (ABUTH); assay: as above
How it was run: as §1

Setaria faberi (SETFA) [4] = assay: as above
How it was run: as §1

[5] = system: Amaranthus retoflexus (AMARE); assay: as above
How it was run: as §1

[6] = system: Ipomoea hederacea (IPOHE); assay: Pre-emergence herbicidal glasshouse test (Table B1)
How it was run: as §1

[7] = system: Echinochloa crus-galh (ECHCG); assay: as above
How it was run: as §1

[8] = system: Abutilon theophrasti (ABUTH); assay: as above
How it was run: as §1

Setaria faberi (SETFA) [9] = assay: as above
How it was run: as §1

[10] = system: Amaranthus retoflexus (AMARE); assay: as above
How it was run: as §1

Structure (SMILES)	POST Application IPOHE, percentage damage on five-point scale ([1]; applied at 500 g/h)	POST Application ECHCG, percentage damage on five-point scale ([2]; applied at 500 g/h)	POST Application ABUTH, percentage damage on five-point scale ([3]; applied at 500 g/h)	POST Application SETFA, percentage damage on five-point scale (Setaria faberi (SETFA) [4]; applied at 500 g/h)	POST Application AMARE, percentage damage on five-point scale ([5]; applied at 500 g/h)	PRE Application IPOHE, percentage damage on five-point scale ([6]; applied)	PRE Application ECHCG, percentage damage on five-point scale ([7]; applied at 500 g/h)	PRE Application ABUTH, percentage damage on five-point scale ([8]; applied at 500 g/h)	PRE Application SETFA, percentage damage on five-point scale (Setaria faberi (SETFA) [9]; applied at 500 g/h)	PRE Application AMARE, percentage damage on five-point scale ([10]; applied at 500 g/h)	POST Application IPOHE, percentage damage on five-point scale ([1]; applied at 125 g/ha)	POST Application ECHCG, percentage damage on five-point scale ([2]; applied at 125 g/ha)	POST Application ABUTH, percentage damage on five-point scale ([3]; applied at 125 g/ha)	POST Application SETFA, percentage damage on five-point scale (Setaria faberi (SETFA) [4]; applied at 125 g/ha)	POST Application AMARE, percentage damage on five-point scale ([5]; applied at 125 g/ha)	PRE Application IPOHE, percentage damage on five-point scale ([6]; applied at 125 g/ha)	PRE Application ECHCG, percentage damage on five-point scale ([7]; applied at 125 g/ha)	PRE Application ABUTH, percentage damage on five-point scale ([8]; applied at 125 g/ha)	PRE Application SETFA, percentage damage on five-point scale (Setaria faberi (SETFA) [9]; applied at 125 g/ha)	PRE Application AMARE, percentage damage on five-point scale ([10]; applied at 125 g/ha)
CCCC(=O)Nc1c(OC(F)(F)F)ccc(C(=O)Nc2nnnn2CC)c1Cl [Compound 1.114]	5 (5=80-100%)	5 (5=80-100%)	5 (5=80-100%)	5 (5=80-100%)	5 (5=80-100%)	3 (3=40-59%)	5 (5=80-100%)	5 (5=80-100%)	2 (2=20-39%)	5 (5=80-100%)										
CCC(=O)Nc1c(OC(F)(F)C(F)F)ccc(C(=O)Nc2nnnn2CC)c1Cl [Compound 1.103]	5 (5=80-100%)	5 (5=80-100%)	5 (5=80-100%)	5 (5=80-100%)	5 (5=80-100%)	1 (1=0-19%)	3 (3=40-59%)	4 (4=60-79%)	1 (1=0-19%)	5 (5=80-100%)										
COc1ccc(C(=O)Nc2nnnn2C)c(Cl)c1NC(C)=O [Compound 1.030, 3-acetamido-2-chloro-4-methoxy-N-(1-methyltetrazol-5-yl)benzamide]	4 (4=60-79%)	5 (5=80-100%)	5 (5=80-100%)	5 (5=80-100%)	5 (5=80-100%)	3 (3=40-59%)	3 (3=40-59%)	5 (5=80-100%)	3 (3=40-59%)	5 (5=80-100%)										
CCC(=O)Nc1c(OC(F)F)ccc(C(=O)Nc2nnnn2C)c1C [Compound 1.126]											4 (4=60-79%)	5 (5=80-100%)	5 (5=80-100%)	5 (5=80-100%)	5 (5=80-100%)	3 (3=40-59%)	5 (5=80-100%)	5 (5=80-100%)	2 (2=20-39%)	5 (5=80-100%)
CCC(CC)C(=O)Nc1c(OC(F)(F)F)ccc(C(=O)Nc2nnnn2C)c1Cl [Compound 1.104]	5 (5=80-100%)	5 (5=80-100%)	5 (5=80-100%)	5 (5=80-100%)	5 (5=80-100%)	2 (2=20-39%)	5 (5=80-100%)	4 (4=60-79%)	3 (3=40-59%)	5 (5=80-100%)										
